How the values were obtained:
[1] = system: A549 human lung cancer cell line harboring constitutively active Ras mutant; test: MTT growth inhibition assay, A549; type: cell-based; settings: A549, MTT
Description: MCF-7 (breast cancer), T47D (breast cancer), Colo 205 (colon cancer), JM-1 (rat hepatoma), Sk Mel-2 (melanoma), PLC (human hepatoma), and HepG2 (human hepatoma) were obtained from American Type Cell Culture Collection. MCF-7 cells were grown in RPMI medium supplemented with 10% Fetal Bovine Serum. The remaining cell lines were grown in DMEM medium supplemented with 10% Fetal Bovine Serum. For the assay, cells were seeded into 96 well plates in medium containing 1% Fetal Bovine Serum and 100 μL of a cell suspension containing 5000 cells per well were used for each well. Cell growth was evaluated utilizing MTT ((3-(4,5-Dimethylthiazol-2-yl)-2,5-diphenyltetrazolium). The absorbance of the wells at 544 nm was determined by a FLUOstar/POLARstar Galaxy (BMG Lab Technologies GmbH) microplate reader.
The growth inhibitory activity of compounds was compared using the A549 human lung cancer cell line harboring constitutively active G12D Ras mutant with the help of an MTT assay. […] Stepwise extensions and truncations confirmed that the peptide had the optimal length (see Table 1).
The growth inhibitory activity of compounds was compared using the A549 human lung cancer cell line harboring constitutively active G12D Ras mutant with the help of an MTT assay.

[2] = system: human lung tumor cell lines (A549, H460, and H1944) and a mouse astrocytoma cell line (187436 tu2) expressing mutated K-Ras; test: Growth inhibition in cell lines expressing mutated K-Ras (FIGS. 2 and 3); type: cell-based; settings: A549, H460, H1944, 187436 tu2
Excerpt: The cell line was generated from astrocytoma developed in a transgenic mouse harboring a G12D mutation in K-Ras and inactivation of the Rb gene.

[3] = system: activated (GTP-bound) Ras in H358 human lung cancer cells; test: Raf-RBD pull-down of active (GTP-bound) Ras; type: cell-based; settings: 5 μM, varying exposure times
Description: H358 human lung cancer cells were grown in 6-well plates in DMEM medium containing 10% FBS. When the cells were about 70% confluent, the medium was replaced with DMEM containing 1% FBS. Two hours later, Ras inhibitors (kR-H6-48, HR-1, kR-4A-4, or kR-4B-2) were added to provide a final concentration of 5 μM.
After varying exposure times, the cells were rinsed with PBS and lysed. The lysates were cleared by centrifugation, incubated with immobilized Raf-RBD beads (which bind Ras) and analyzed by Western blot using manufacturer's protocols (Cytoskeleton, Inc., Denver, Colo.; Catalog No. BK008). The bands corresponding to active (GTP-bound) Ras were quantified with the help of MIPAV software.

[4] = system: Ras protein in H2009 and H2592 cells; test: Western blot of Ras protein amount in cancer cells; type: cell-based; settings: 0-3.0 μM, 18 hours
Description: A further experiment was undertaken to determine the effect of analogs of helix 6 and HVR on the amount of K-Ras protein in cancer cells. H2009 (lung adenocarcinoma cells) and H2592 (plural mesothelioma cells) were exposed to varying concentrations (0-3.0 μM) of kR-4A-3, kR-4B-3, or kR-H6-3 for 18 hours. The cells then were lysed and the lysate was analyzed by Western blot using anti-Ras mAb (Cell Biolabs, Inc.).

[5] = target: K-Ras in H2592 cells (Homo sapiens, UniProt P01116); settings: GI50 concentrations, 18 hours
Description: Goat anti-mouse antibodies with Alexa Fluor TM 594 (red) were used to visualize the anti-Ras mouse mAb.

[6] = system: DPPC bilayers containing 5% DPPE stabilized by MSP1 scaffold protein (nanodiscs); test: SPR membrane binding to phospholipid bilayer nanodiscs
Description: Dipalmitoylphosphatidylcholine (DPPC) bilayers containing 5% dipalmitoyldiphosphatidylethanolamine (DPPE) stabilized by MSP1 scaffold protein were prepared. […] The preparation procedure involved mixing DPPC lipids with MSP1 at a 90:1 molar ratio in the presence of 100 mM cholate. Cholate was removed by slow dialysis. The assembled nanodiscs were purified by size-exclusion chromatography on a calibrated Superdex 200 column and immobilized on a surface plasmon resonance (SPR) sensor chip.
The presence of a primary amine group in DPPE provided a convenient site for cross-linking of nanodiscs to an SPR sensor chip. The noncross-linked dextran in the sample and reference cells was blocked by the coupling reagent. Four different peptides were used to study membrane binding by SPR. […] The HVR peptide lacks post-translational modifications present in K-Ras4B. The second peptide is the HVR peptide conjugated to S-farnesyl L-cysteine methyl ester via a bifunctional cross-linker Sulfosuccinimidyl-4-(N-maleimidomethyl)cyclohexane-1-carboxylate (Sulfo-SMCC) (Pierce). The other two peptides were kR-4A-C1 and kR-4B-C1.
In this situation determination of true dissociation constants was not feasible. Instead, the data were analyzed using the Hill equation. The Hill coefficient describes the degree of binding cooperativity.

[7] = system: HCC15 cells; test: Cell invasion, Boyden Chambers; type: cell-based; settings: IC25 concentration
Description: Cell invasion assays were performed using the BD Biocoat Matrigel Invasion Chambers in accordance with the manufacturer's protocol. Cells (1×10^5/mL) were seeded onto 12-well cell culture chamber using inserts with 8 μm pore size polycarbonate membrane over a thin layer of Matrigel Basement Membrane Matrix without phenol red (BD Biosciences) diluted at 1:100 in PBS. Following incubation of the plates for 48 hours at 37° C., cells that invaded through the Matrigel and migrated to the lower surface of the membrane were stained with Giemsa solution, counted under the microscope in at least 10 different fields, and photographed. Three wells were examined for each condition and cell type, and the experiments were repeated in triplicate.
(§1) The rate of migration and invasion was determined using Boyden Chambers (Millipore) in accordance with the manufacturer's protocol.

[8] = system: HCC15 cells; test: Cell migration, Boyden Chambers; type: cell-based; settings: IC25 concentration
Description: as §1

[9] = system: HCC15 cells; test: Wound closure assay; type: cell-based
[10] = system: H358 human lung cancer cells with mutated K-Ras; test: H358 tumor growth in nude mice; type: in vivo
Excerpt: 2×10^6 H358 human lung cancer cells with mutated K-Ras were implanted subcutaneously (s.c.) in nude mice.

Substance: Ac-PGLNVKIKKK-e-Pal [kR-4A-7]
- GI50 ([1]; Table 2 HVR derivatives): > 10 µM

Substance: Pal-e-KFYTLVREIRQYR [kR-H6-12]
- GI50 ([1]; Table 1 helix 6 derivatives): 0.18 µM

Substance: Myr-YQRVQRVLTYW (all D) [kR-H6-40]
- GI50 ([1]; Table 1 helix 6 derivatives): 0.02 ± 0.01 µM

Substance: Ac-KTPGLNVKIKKK-e-Pal [kR-4A-4]
- growth inhibition (cell number, percent of control) [2]: growth inhibition
- GI50 ([1]; Table 2 HVR derivatives): 0.7 µM
- GTP-bound Ras (fraction of control) [3]: reduction in activated (GTP-bound) Ras

Substance: Ac-VEDAFYTLVREIRQYRK (e-Pal) [kR-H6-7]
- GI50 ([1]; Table 1 helix 6 derivatives): 2.7 µM

Substance: Lau-WQRVQRVLTYF (all D) [kR-H6-44]
- GI50 ([1]; Table 1 helix 6 derivatives): 0.001 ± 0.001 µM

Substance: Ac-RYQRIQRVLTYFK-e-Pal (all D) [kR-H6-32]
- GI50 ([1]; Table 1 helix 6 derivatives): 0.01 ± 0.004 µM

Substance: e-Pal-KRYQRIERVLTYFADEV (all D) [kR-H6-3]
- amount of Ras protein [4]: reduced the amount of Ras protein in lung cancer cells in a concentration-dependent manner
- GI50 ([1]; Table 1 helix 6 derivatives): > 5 µM
- Ras protein levels by immunostaining [5]: reduction in protein levels
- pattern of K-Ras distribution [5]: lack of characteristic punctuate pattern of K-Ras distribution

Substance: Ac-AFYTLVREIRQYRK (e-Pal) [kR-H6-8]
- GI50 ([1]; Table 1 helix 6 derivatives): 5 µM

Substance: Lau-YQRVQRVLTYF (all D) [kR-H6-38]
- GI50 ([1]; Table 1 helix 6 derivatives): 0.015 µM

Substance: HVR peptide: represents the hypervariable region of K-Ras-4B, residues 165 through 183; lacks post-translational modifications (QYRLKKISKEEKTPGCVKI; K-Ras4B; UniProt P01116 165-183, looked up, fragment) [reference compound]
- Hill coefficient (membrane binding cooperativity) ([6]; Hill equation): 1.106±0.001

Substance: Ac-RLKKISKEEKTPGSVKIKKK-e-Pal [kR-4A-1]
- cell invasion (average number of cells migrated) [7]: inhibition of HCC15 cell invasion
- cell migration (average number of cells migrated) [8]: inhibition of NCC15 cell migration
- cell motility (average closure) [9]: inhibition of HCC15 cell motility
- GI50 ([1]; Table 2 HVR derivatives): 3.1 µM

Substance: Oct-YQRVQRVLTYF (all D) [kR-H6-50]
- GI50 ([1]; Table 1 helix 6 derivatives): 0.004 ± 0.001 µM

Substance: Pal-YQRVQRVLTYF (all D) [kR-H6-36]
- GI50 ([1]; Table 1 helix 6 derivatives): 0.01 ± 0.005 µM

Substance: Pal-e-KAFYTLVREIRQYRL [kR-H6-27]
- GI50 ([1]; Table 1 helix 6 derivatives): 0.28 ± 0.03 µM

Substance: Ac-KKKKSKTKK-e-Pal [kR-4B-7]
- GI50 ([1]; Table 2 HVR derivatives): 2 µM

Substance: Lau-YKRVQRVLTYF (all D) [kR-H6-42]
- GI50 ([1]; Table 1 helix 6 derivatives): 0.3 ± 0.05 µM

Substance: Ac-TPGLNVKIKKK-e-Pal [kR-4A-6]
- GI50 ([1]; Table 2 HVR derivatives): > 10 µM

Substance: Ac-YRLKKISKEEKTPGK-e-Pal [kR-4A-2]
- GI50 ([1]; Table 2 HVR derivatives): 1.65 µM

Substance: Pal-e-KAFYTLVREIRKHK [kR-H6-18]
- GI50 ([1]; Table 1 helix 6 derivatives): > 1 µM

Substance: Ac-KEKLNSKDGKKKKKKSKTKK-e-Pal [kR-4B-1]
- cooperative interactions with membrane lipids ([6]; phospholipid bilayers): showed the best cooperative interactions with membrane lipids
- cell invasion (average number of cells migrated) [7]: inhibition of HCC15 cell invasion
- cell migration (average number of cells migrated) [8]: inhibition of NCC15 cell migration
- cell motility (average closure) [9]: inhibition of HCC15 cell motility
- GI50 ([1]; Table 2 HVR derivatives): 1.45 µM

Substance: Pal-YQRIQRVLTYFA (all D) [kR-H6-21]
- GI50 ([1]; Table 1 helix 6 derivatives): 0.03 µM

Substance: Pal-e-KAFYTLVREIRQY [kR-H6-10]
- GI50 ([1]; Table 1 helix 6 derivatives): 0.3 µM

Substance: Ac-DGTQGLNLNGLPK-e-Pal [NR-1]
- GI50 ([1]; Table 2 HVR derivatives): > 10 µM

Substance: Ac-LRYQRIQRVLTYFAK-e-Pal (all D) [kR-H6-31]
- GI50 ([1]; Table 1 helix 6 derivatives): 0.025 ± 0.01 µM

Substance: Ac-KTPGAVKIKKK-e-Pal [kR-4A-5]
- GI50 ([1]; Table 2 HVR derivatives): 5 µM

Substance: Cap-YQRVQRVLTYF (all D) [kR-H6-49]
- GI50 ([1]; Table 1 helix 6 derivatives): 0.0008 µM

Substance: Pal-LRYQRIERVLTYFADEV (all D) [kR-H6-2]
- GI50 ([1]; Table 1 helix 6 derivatives): 0.3 µM

Substance: Pal-KTKSKKKKK-NH2 All-D [kR-4B-6]
- GI50 ([1]; Table 2 HVR derivatives): 1.7 µM

Substance: Pal-YQRIQRVLTYF (all D) [kR-H6-34]
- GI50 ([1]; Table 1 helix 6 derivatives): 0.018 ± 0.005 µM

Substance: Pal-RYQRIERVLTYFADEV (all D) [kR-H6-1]
- GI50 ([1]; Table 1 helix 6 derivatives): 1.35 µM

Substance: Ac-Doa-VEDAFYTLVREIRQYR [kR-H6-5]
- GI50 ([1]; Table 1 helix 6 derivatives): 3.3 µM

Substance: Ac-GLNVKIKKK-e-Pal [kR-4A-8]
- GI50 ([1]; Table 2 HVR derivatives): > 10 µM

Substance: Pal-e-KAFYTLVRQIRQYRL [kR-H6-28]
- GI50 ([1]; Table 1 helix 6 derivatives): 0.25 ± 0.05 µM

Substance: Ac-YQRIQRVLTYFK-e-Pal (all D) [kR-H6-11]
- GI50 ([1]; Table 1 helix 6 derivatives): 0.01 µM

Substance: Ac-VEDAFYTLVREIRQYR [kR-H6-16]
- GI50 ([1]; Table 1 helix 6 derivatives): > 5 µM

Substance: Pal-RYQRIQRVLTYF (all D) [kR-H6-20]
- GI50 ([1]; Table 1 helix 6 derivatives): 0.25 µM

Substance: Lau-HQRVQRVLTYF (all D) [kR-H6-43]
- GI50 ([1]; Table 1 helix 6 derivatives): 0.3 ± 0.05 µM

Substance: Lau-YQRVQRVLTYW (all D) [kR-H6-39]
- GI50 ([1]; Table 1 helix 6 derivatives): 0.09 ± 0.015 µM

Substance: Pal-Aib-YQRIQRVLTYF (all D) [kR-H6-35]
- GI50 ([1]; Table 1 helix 6 derivatives): 0.45 ± 0.05 µM

Substance: Pal-RYQRIQRVLTYFA (all D) [kR-H6-19]
- GI50 ([1]; Table 1 helix 6 derivatives): > 1 µM

Substance: Lau-YQRVQRVLTYFA (all D) [kR-H6-47]
- GI50 ([1]; Table 1 helix 6 derivatives): 0.001 ± 0.001 µM

Substance: Ac-AFYTLVREIRQYR [kR-H6-17]
- GI50 ([1]; Table 1 helix 6 derivatives): > 5 µM

Substance: Ac-KKKSKTKK-e-Pal [kR-4B-8]
- tumor weight at the time of sacrifice ([10]; 10 mg/kg s.c. every second day for 20 days, control 1.21 g): 0.35 g
- tumor growth ([10]; 10 mg/kg s.c. near the tumor every second day for 20 days): abolished the growth
- GI50 ([1]; Table 2 HVR derivatives): 2.3 µM

Substance: Cap-YQRVQRVLTYW (all D) [kR-H6-41]
- GI50 ([1]; Table 1 helix 6 derivatives): 0.18 ± 0.04 µM

Substance: Pal-YQRKQRVLTYF (all D) [kR-H6-14]
- GI50 ([1]; Table 1 helix 6 derivatives): 0.04 µM

Substance: Ac-YQRIQRVLTYFAK-e-Pal (all D) [kR-H6-33]
- GI50 ([1]; Table 1 helix 6 derivatives): 0.0045 ± 0.001 µM

Substance: Pal-KVEDAFYTLVREIRQYR [kR-H6-4]
- GI50 ([1]; Table 1 helix 6 derivatives): > 5 µM

Substance: Ac-KLNSKDGKKKKKKSKTKK-e-Pal [kR-4B-2]
- GTP-bound Ras (fraction of control) [3]: reduction in activated (GTP-bound) Ras

Substance: Ac-YQRKQRVLTYFK-e-Pal (all D) [kR-H6-13]
- GI50 ([1]; Table 1 helix 6 derivatives): 0.06 µM

Substance: Ac-DAFYTLVREIRQYRK (e-Pal) [kR-H6-9]
- GI50 ([1]; Table 1 helix 6 derivatives): 0.5 µM
